US11912645B2, “Lipopeptide compounds for the treatment of pain disorders” (INSERM (Institut National de la Santé et de la Recherche …, priority 2017, dated 2024)

Columns and labels:
[1] = test system: mouse sensory neurons activated by mix of GPCR agonists (histamine, serotonin, bradykinin); experiment: Calcium flux in sensory neurons activated by mix of GPCR agonists; type: cell-based; conditions: serotonin 10 μM each, pretreatment with increasing amounts of compound
Method: FIG. 4: C12-Asn-GABA inhibits neuronal activation via the GABA B receptor. Amplitude of intracellular calcium mobilization (ΔF/F; right panel) in mouse sensory neurons and percentage of responding neurons (left panel) pretreated with increasing amounts of C12-Asn-GABA (black circle) or vehicle (HBSS; white circle) and treated with capsaicin (125 nM; A) or a mix of G protein coupled receptor agonists (histamine, serotonin and bradykinin 10 μM each; B). Data are represented as mean±SEM; n=4 independent experiments of 3 wells per condition and 30-80 neurons per well. […] Percentage of responding neurons pretreated with increasing amounts of saclofen (black circle) or vehicle (HBSS; white circle) and treated with C12-Asn-GABA (10 μM) and capsaicin (125 nM; C) or a mix of G protein coupled receptor agonist (histamine, serotonin and bradykinin 10 μM each; D). Data are represented as mean±SEM; n=4 independent experiments of 3 wells per condition and 30-80 neurons per well.
Male C57B16 mice (6-8 weeks) were used to produce primary cultures of dorsal root ganglia (DRG) sensory neurons for calcium flux experiments, and to perform studies of colorectal distention and intestinal isotonic contraction. All procedures were approved by Institutional Animal Care Committees (CEEA 122). […]

Caco-2 cells [2] = experiment: Absorption across Caco-2 monolayer in transwell chambers; type: in vitro ADME, human; conditions: 800 ng apical
Method: (§1) FIG. 5: C12-Asn-GABA crosses the epithelial barrier without modifying epithelial cells physiology. Caco-2 cells were cultivated into transwell chambers. After treatment with C12-Asn-GABA (800 ng) at the apical side, C12-Asn-GABA was quantified inside the cells and both the apical and basolateral compartments by LC-MS/MS (A); data are represented as mean±SEM, n=3 experiments of 3 wells per condition. Extracted ion chromatogram at the exact mass of GABA (104.0702 m/z) with a mass accuracy of 5 ppm of the GABA commercial standard (GABA (Std.) and apical and basolateral compartments after loading or not Caco-2 cells with 800 ng of GABA at the apical site (B); representation of one well, n=3 experiments of 3 wells per condition. Paracellular permeability assessed by the passage of FITC-dextran loaded at the apical side (C) and CXCL8 secretion assessed by ELISA (D) were monitored after treatment of Caco-2 cells at the apical side with C12-Asn-GABA (10 μM); data are represented as mean±SEM, n=3 experiments of 3 wells per condition. […]
Caco-2 cells were grown in Glutamax DMEM (Gibco, Invitrogen life technologies, Paisley, UK) supplemented with 10% heat-inactivated fetal bovine serum (FBS) (Gibco, Invitrogen life technologies, Paisley, UK), 1% nonessential amino acids and 1% antibiotics (100 U/ml penicillin and […] streptomycin (Gibco, Invitrogen life technologies, Grand Island, N.Y., USA) at 37° C. in a 5% C02 water-saturated atmosphere. Cells were seeded on Transwell inserts (Costar, Sigma-Aldrich, Saint-Quentin Fallavier, France) and absorption studies of C12-Asn-GABA and GABA were performed 16 days later. These compounds were quantified by LC-MS/MS in both apical and basolateral chambers as well as in cells. The effect of C12-Asn-GABA (1-100 μM) on paracellular permeability was also measured by mucosal-to-serosal flux of 4 kDa Fluorescein Isothiocyanate (FITC)-labelled dextran as previously described^31. […]
The initial barrier for any drug absorption is the intestinal epithelial cell wall. […] The transport of GABA alone across the cell monolayer was also assessed. […]

Caco-2 cells [3] = experiment: Paracellular permeability, 4 kDa FITC-dextran flux across Caco-2 monolayer; type: cell-based, human; conditions: 10 μM apical, 24 h
Method: as §1
(§2) To assess the effect of C12-Asn-GABA on paracellular permeability, transport of dextran 4 kDa FITC across a Caco-2 cell monolayer was investigated. […] In parallel, the release of CXCL8 from Caco-2 cells into the medium, of both apical and basolateral sides of the transwell, was assessed by ELISA. […]

Caco-2 cells [4] = experiment: CXCL8 secretion by Caco-2 cells (ELISA); type: cell-based, human; conditions: 1, 10, 100 μM; 24 hours
Method: as §1, §2

- fraction of apically added compound found in the basolateral chamber (Caco-2 cells [2]; 24 h, LC-MS/MS): approximately 50%
- level in epithelial cells (Caco-2 cells [2]; 24 h of incubation): low levels
SMILES: CCCCCCCCCCCC(=O)NC(CC(N)=O)C(=O)NCCCC(=O)O (centres unmarked) [C12-Asn-GABA, C11 C(O)-Asn-gamma-aminobutyric acid]
- calcium flux increase induced by mix of GPCR agonists (% responding neurons, amplitude ΔF/F) [1]: prevented by C12-Asn-GABA pretreatment in a dose-dependent manner
- percentage of 4 kDa FITC traversing the cell monolayers (paracellular permeability) (Caco-2 cells [3]): not modified
- secretion of CXCL8 (apical and basolateral) (Caco-2 cells [4]): None of the tested doses (1, 10, 100 μM) and neither the vehicle modified the secretion of CXCL8
